In ChEMBL document CHEMBL5584268, “Dactylfungins and Tetralones: Bioactive Metabolites from a Nematode-Associated Laburnicola nematophila” (J Nat Prod, 2024):
≈ marks a conversion by molar mass, not a printed value. Calls of active or inactive are those of the source. The rule behind the calls is not given here.

Assays:
Rhodotorula glutinis [1] = assay: Antimicrobial activity against Rhodotorula glutinis DSM 10134 up to 67 ug/ml measured after 72 hrs by serial dilution assay; assay type: functional, organism-based; conditions: dose <= 67.0 µg/ml
KB 3-1 = assay: Cytotoxicity against human KB-3-1 cells by MTT assay; assay type: functional, cell-based
Staphylococcus aureus [2] = assay: Antimicrobial activity against Staphylococcus aureus DSM 346 up to 67 ug/ml measured after 72 hrs by serial dilution assay; assay type: functional, organism-based; conditions: dose <= 67.0 µg/ml
L929 = assay: Cytotoxicity against mouse L929 cells by MTT assay; assay type: toxicity, cell-based
Caenorhabditis elegans = assay: Nematicidal activity against Caenorhabditis elegans at 10 to 100 ug/ml incubated for 18 hrs by stereomicroscopic analysis; assay type: functional, organism-based; conditions: dose 10-100 µg/ml
Candida albicans [3] = assay: Antimicrobial activity against Candida albicans CCM 8215 measured after 12 hrs by serial dilution assay; assay type: functional
Aspergillus fumigatus [4] = assay: Antimicrobial activity against Aspergillus fumigatus ATCC 204305 measured after 72 hrs by serial dilution assay; assay type: functional
Aspergillus fumigatus [5] = assay: Antimicrobial activity against azole-resistant Aspergillus fumigatus CCF 6651 measured after 72 hrs by serial dilution assay; assay type: functional
Aspergillus fumigatus [6] = assay: Antimicrobial activity against azole-resistant Aspergillus fumigatus CCF 6674 measured after 72 hrs by serial dilution assay; assay type: functional
Cryptococcus neoformans [7] = assay: Antimicrobial activity against Cryptococcus neoformans CCF 1081 measured after 48 hrs by serial dilution assay; assay type: functional
Mucor plumbeus [8] = assay: Antimicrobial activity against Mucor plumbeus CCF 2612 measured after 48 hrs by serial dilution assay; assay type: functional
Staphylococcus aureus [9] = assay: Antimicrobial activity against Staphylococcus aureus DSM 346 measured after 72 hrs by serial dilution assay; assay type: functional
Cryptococcus neoformans [10] = assay: Antimicrobial activity against Cryptococcus neoformans CCF 1081 up to 67 ug/ml measured after 48 hrs by serial dilution assay; assay type: functional, organism-based; conditions: dose <= 67.0 µg/ml
Mucor plumbeus [11] = assay: Antimicrobial activity against Mucor plumbeus CCF 2612 up to 67 ug/ml measured after 48 hrs by serial dilution assay; assay type: functional, organism-based; conditions: dose <= 67.0 µg/ml
Candida albicans [12] = assay: Antimicrobial activity against Candida albicans CCM 8215 up to 67 ug/ml measured after 12 hrs by serial dilution assay; assay type: functional, organism-based; conditions: dose <= 67.0 µg/ml
Aspergillus fumigatus [13] = assay: Antimicrobial activity against azole-resistant Aspergillus fumigatus CCF 6651 up to 67 ug/ml measured after 72 hrs by serial dilution assay; assay type: functional, organism-based; conditions: dose <= 67.0 µg/ml
Rhodotorula glutinis [14] = assay: Antimicrobial activity against Rhodotorula glutinis DSM 10134 measured after 72 hrs by serial dilution assay; assay type: functional
Aspergillus fumigatus [15] = assay: Antimicrobial activity against Aspergillus fumigatus CCF 3522 measured after 48 hrs by serial dilution assay; assay type: functional

Row | Molecule | Activity (Rhodotorula glutinis [1]) | Activity (KB 3-1) | Activity (Staphylococcus aureus [2]) | Activity (L929) | Activity (Caenorhabditis elegans) | MIC (Aspergillus fumigatus [4]) [µg/mL] | MIC (Aspergillus fumigatus [5]) [µg/mL] | MIC (Aspergillus fumigatus [6]) [µg/mL] | MIC (Cryptococcus neoformans [7]) [µg/mL] | other results
1 | COc1cc2c(c(O)c1Cc1c(O)c(O)c3cc(C)oc(=O)c3c1O)C(=O)CC[C@H]2O | inactive | Active | inactive | Toxic | inactive | – | – | – | – | –
2 | COc1cc2c(c(O)c1/C=C/C(C)=O)C(=O)CC[C@H]2O | inactive | Active | inactive | Toxic | inactive | – | – | – | – | –
3 | CC[C@H](C)C[C@@H](C)/C=C(C)/C=C/C[C@H](C)[C@H](O)[C@@H](C)/C=C(C)/C=C/[C@H](O)[C@@H](C)c1cc(O)c([C@H]2O[C@@H](CO)C[C@@H](O)[C@@H]2O)c(=O)o1 | – | – | – | – | – | 8.32 (≈ 12.9 µM) | 0.52 (≈ 0.804 µM) | 0.52 (≈ 0.804 µM) | 4.15 (≈ 6.42 µM) | MIC (Candida albicans [3]): 8.3 µg/mL (≈ 12.8 µM); MIC (Mucor plumbeus [8]): 1.04 µg/mL (≈ 1.61 µM)
4 | COc1cc2c(c(O)c1CO)C(=O)CC[C@H]2O | inactive | inactive | inactive | Non-Toxic | inactive | – | – | – | – | –
5 | GENTAMICIN | – | – | – | – | – | – | – | – | – | MIC (Staphylococcus aureus [9]): 0.21 µg/mL
6 | CC[C@H](C)[C@H](O)[C@@H](C)/C=C(C)/C=C/C[C@H](C)[C@H](O)[C@@H](C)/C=C(C)/C=C/[C@H](O)C(C)(C)c1cc(O)c([C@H]2O[C@@H](CO)C[C@@H](O)[C@@H]2O)c(=O)o1 | inactive | – | inactive | – | inactive | 0.26 (≈ 0.384 µM) | – | 16.6 (≈ 24.5 µM) | – | Activity (Cryptococcus neoformans [10]): inactive; Activity (Mucor plumbeus [11]): inactive; Activity (Candida albicans [12]): inactive; Activity (Aspergillus fumigatus [13]): inactive
7 | NYSTATIN | – | – | – | – | – | – | – | – | – | MIC (Rhodotorula glutinis [14]): 4.2 µg/mL
8 | CC[C@H](C)C[C@@H](C)/C=C(C)/C=C/C[C@H](C)[C@H](O)[C@@H](C)/C=C(C)/C=C/[C@H](O)C(C)(C)c1cc(O)c([C@H]2O[C@@H](CO)C[C@@H](O)[C@@H]2O)c(=O)o1 | – | – | – | – | inactive | 0.52 (≈ 0.787 µM) | 2.08 (≈ 3.15 µM) | 0.52 (≈ 0.787 µM) | 4.15 (≈ 6.28 µM) | MIC (Rhodotorula glutinis [14]): 8.3 µg/mL (≈ 12.6 µM); Activity (Mucor plumbeus [11]): inactive; MIC (Aspergillus fumigatus [15]): 0.52 µg/mL (≈ 0.787 µM); Activity (Candida albicans [12]): inactive; MIC (Staphylococcus aureus [9]): 66.6 µg/mL (≈ 101 µM)
9 | C[C@@H]1[C@H](O)[C@@H](C)/C=C/C=C/C=C/C=C/C=C/C=C/C=C/[C@H](O[C@@H]2O[C@H](C)[C@@H](O)[C@H](N)[C@@H]2O)C[C@@H]2O[C@](O)(C[C@@H](O)C[C@@H](O)[C@H](O)CC[C@@H](O)C[C@@H](O)CC(=O)O[C@H]1C)C[C@H](O)[C@H]2C(=O)O [AMPHOTERICIN B] | – | – | – | – | – | 0.31 (≈ 0.335 µM) | 0.16 (≈ 0.173 µM) | 2.5 (≈ 2.71 µM) | 2.5 (≈ 2.71 µM) | MIC (Aspergillus fumigatus [15]): 0.31 µg/mL (≈ 0.335 µM); MIC (Mucor plumbeus [8]): 0.31 µg/mL (≈ 0.335 µM)
